Reference: ChEMBL document CHEMBL4725294, “Centrally Active Multitarget Anti-Alzheimer Agents Derived from the Antioxidant Lead CR-6” (J Med Chem, 2020)
The source made the active and inactive calls. The calls are words filed in the database; no cut-off is given here.

Key:
[1] = biological target: Beta-secretase 1 (Homo sapiens, UniProt P56817); assay: Inhibition human BACE1 expressed in baculovirus expression system at 5 uM using Panvera peptide as substrate measured after 60 mins by fluorescence assay relative to control; conditions: 1 h
Chain of Beta-secretase 1 (P56817 whole entry): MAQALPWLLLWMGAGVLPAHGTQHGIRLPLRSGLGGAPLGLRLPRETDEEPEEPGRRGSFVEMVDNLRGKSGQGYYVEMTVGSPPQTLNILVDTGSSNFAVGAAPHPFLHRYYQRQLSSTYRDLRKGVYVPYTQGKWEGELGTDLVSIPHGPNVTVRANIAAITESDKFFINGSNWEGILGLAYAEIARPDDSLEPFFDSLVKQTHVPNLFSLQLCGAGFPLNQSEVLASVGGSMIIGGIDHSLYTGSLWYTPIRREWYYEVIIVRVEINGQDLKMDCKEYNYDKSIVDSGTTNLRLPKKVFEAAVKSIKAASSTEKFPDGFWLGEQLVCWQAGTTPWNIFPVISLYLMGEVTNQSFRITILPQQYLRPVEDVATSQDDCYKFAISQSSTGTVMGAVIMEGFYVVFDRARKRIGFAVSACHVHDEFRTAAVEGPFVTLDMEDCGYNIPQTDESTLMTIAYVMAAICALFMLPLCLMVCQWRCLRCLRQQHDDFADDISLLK

[2] = Acute toxicity in C57BL6/J mouse at 5 to 10 mg/kg, ip measured up to 24 hrs; assay type: organism-based; conditions: in vivo, dose 5-10 mg/kg
[3] = Acute toxicity in C57BL6/J mouse assessed as piloerection at 15 mg/kg, ip measured after 5 mins; assay type: organism-based; conditions: in vivo
[4] = Acute toxicity in C57BL6/J mouse assessed as tremor at 15 mg/kg, ip measured after 5 mins; assay type: organism-based; conditions: in vivo
[5] = tested on: Mus musculus; assay: Antialzheimer activity in APP/PS1 double mutant-transgenic C57BL6/J mouse model assessed as reduction in soluble amyloid beta 42 level in cortex at 10 mg/kg/day, ip for 4 weeks followed by compound washout and measured after 24 hrs by ELISA; assay type: functional, organism-based
[6] = tested on: Mus musculus; assay: Antialzheimer activity in APP/PS1 double mutant-transgenic C57BL6/J mouse model assessed as reduction in Bace1 gene expression at 10 mg/kg/day, ip for 4 weeks followed by compound washout and measured after 24 hrs by qPCR analysis; assay type: functional, organism-based
[7] = tested on: Mus musculus; assay: Antialzheimer activity in APP/PS1 double mutant-transgenic C57BL6/J mouse model assessed as increase in Adam10 expression at 10 mg/kg/day, ip for 4 weeks followed by compound washout and measured after 24 hrs by Western blot analysis; assay type: functional, organism-based
[8] = tested on: Mus musculus; assay: Antialzheimer activity in APP/PS1 double mutant-transgenic C57BL6/J mouse model assessed as effect on iNOS gene expression at 10 mg/kg/day, ip for 4 weeks followed by compound washout and measured after 24 hrs by qPCR analysis; assay type: functional, organism-based
[9] = Stability in human plasma assessed as parent compound remaining at 10 uM measured after 60 mins by UPLC-MS/MS analysis; assay type: ADME, cell-free; conditions: read-out: Stabilty
[10] = Stability in mouse plasma assessed as parent compound remaining at 10 uM measured immediately by UPLC-MS/MS analysis; assay type: ADME, cell-free; conditions: read-out: Stabilty
[11] = Stability in mouse plasma assessed as parent compound remaining at 10 uM measured after 180 mins by UPLC-MS/MS analysis; assay type: ADME, cell-free; conditions: read-out: Stabilty
[12] = Stability in rat plasma assessed as parent compound remaining at 10 uM measured after 180 mins by UPLC-MS/MS analysis; assay type: ADME, cell-free; conditions: read-out: Stabilty
[13] = Stability in rat plasma assessed as parent compound remaining at 10 uM measured after 360 mins by UPLC-MS/MS analysis; assay type: ADME, cell-free; conditions: read-out: Stabilty
[14] = Stability in mouse liver microsomes assessed as parent compound remaining at 5 uM measured up to 60 mins by UPLC-MS/MS analysis; assay type: ADME, Microsome; conditions: read-out: Stabilty
[15] = Stability in rat liver microsomes assessed as parent compound remaining at 5 uM measured up to 60 mins by UPLC-MS/MS analysis; assay type: ADME, Microsome; conditions: read-out: Stabilty
[16] = Intrinsic clearance in rat liver microsomes assessed per mg protein at 5 uM by UPLC-MS/MS analysis; assay type: ADME, Microsome; conditions: read-out: CLH
[17] = Drug metabolism in mouse liver microsomes assessed as 6-chloro-1,2,3,4-tetrahydroacridin-9-amine formation at 5 uM measured up to 60 mins by UPLC-MS/MS analysis; assay type: ADME, Microsome; conditions: 1 h
[18] = Drug metabolism in rat liver microsomes assessed as N-[8-[(6-chloro-1,2,3,4-tetrahydroacridin-9-yl)amino]octyl]-2-(8-methoxy-2-methyl-6,9-dioxo-1-oxaspiro[4.5]dec-7-en-2-yl)acetamide formation at 5 uM measured up to 60 mins by UPLC-MS/MS analysis; assay type: ADME, Microsome; conditions: 1 h
[19] = Drug metabolism in rat liver microsomes assessed as N-[8-[(6-chloro-1,2,3,4-tetrahydroacridin-9-yl)amino]octyl]-5-(2,5-dihydroxy-4-methoxy-phenyl)-3-hydroxy-3-methyl-pentanamide formation at 5 uM measured up to 60 mins by UPLC-MS/MS analysis; assay type: ADME, Microsome; conditions: 1 h

COc1cc2c(cc1O)CCC(C)(CC(=O)NCCCCCCCCNc1c3c(nc4cc(Cl)ccc14)CCCC3)O2 (centres undefined)
inhibition at 5 µM [1]: 19%
Activity [2]: Non-Toxic
Activity [3]: Toxic
Activity [4]: Toxic
Activity [5]: inactive
Activity [6]: Active
Activity [7]: inactive
Activity [8]: inactive
remaining at 1 h, 10 µM [9]: 100%
remaining at 0 min, 10 µM [10]: 100%
remaining at 3 h, 10 µM [11]: 100%
remaining at 3 h, 10 µM [12]: 100%
remaining at 6 h, 10 µM [13]: 98%
remaining at 1 h, 5 µM [14]: 55.2%
remaining at 1 h, 5 µM [15]: 36.5%
microsomal CLint at 5 µM [16]: 16.3 µL/min/mg
Drug metabolism [17]: Metabolite_Detected
Drug metabolism [18]: Metabolite_Detected
Drug metabolism [19]: Metabolite_Detected
